Laboratory results as given in paper PMC9632086, “Phosphodiesterase 10A (PDE10A) as a novel target to suppress β-catenin and RAS signaling in epithelial ovarian cancer” (Journal of Ovarian Research, 2022).

Biological target: T1, PDE10A (Homo sapiens, UniProt Q9Y233)
T1 construct: endogenous PDE10A in SKOV3 cells
Assay: cellular cAMP immunoassay after […] for […] min, parental and empty-vector cells versus PDE10A knockout clones
Format: cell-based

T1 sequence (Q9Y233 whole entry): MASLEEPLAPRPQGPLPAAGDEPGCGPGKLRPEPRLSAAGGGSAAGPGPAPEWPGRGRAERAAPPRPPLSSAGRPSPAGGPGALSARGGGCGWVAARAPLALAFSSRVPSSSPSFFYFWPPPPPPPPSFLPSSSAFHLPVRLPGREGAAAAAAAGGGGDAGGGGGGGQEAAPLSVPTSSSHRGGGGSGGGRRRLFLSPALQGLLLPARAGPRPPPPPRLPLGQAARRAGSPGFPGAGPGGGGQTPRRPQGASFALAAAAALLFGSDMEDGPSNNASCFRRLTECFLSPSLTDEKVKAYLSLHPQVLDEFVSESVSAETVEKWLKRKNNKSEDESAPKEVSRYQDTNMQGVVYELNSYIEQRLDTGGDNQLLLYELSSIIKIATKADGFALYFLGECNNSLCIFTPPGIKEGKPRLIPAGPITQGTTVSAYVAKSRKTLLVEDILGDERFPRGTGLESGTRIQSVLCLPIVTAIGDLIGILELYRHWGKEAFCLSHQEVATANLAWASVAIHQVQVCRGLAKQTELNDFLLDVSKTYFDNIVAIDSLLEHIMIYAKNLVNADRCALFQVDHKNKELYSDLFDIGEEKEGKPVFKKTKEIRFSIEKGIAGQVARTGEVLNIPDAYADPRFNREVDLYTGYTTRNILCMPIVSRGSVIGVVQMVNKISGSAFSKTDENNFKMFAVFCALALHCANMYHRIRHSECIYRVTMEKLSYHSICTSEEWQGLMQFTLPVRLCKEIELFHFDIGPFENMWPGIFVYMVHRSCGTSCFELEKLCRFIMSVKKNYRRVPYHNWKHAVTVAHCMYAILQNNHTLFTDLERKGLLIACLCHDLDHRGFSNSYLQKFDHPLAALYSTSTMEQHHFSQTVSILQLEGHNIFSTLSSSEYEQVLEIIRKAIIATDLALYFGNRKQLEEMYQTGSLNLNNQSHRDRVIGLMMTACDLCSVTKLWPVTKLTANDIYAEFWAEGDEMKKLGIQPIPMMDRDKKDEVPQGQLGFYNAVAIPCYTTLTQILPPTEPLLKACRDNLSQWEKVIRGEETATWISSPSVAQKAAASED

## COc1ccc2c(c1)C(CC(=O)Nc1cccnc1)=C(C)/C2=C/c1cc(OC)c(OC)c(OC)c1 [MCI-030]
  cellular cAMP level: MCI-030 increased cAMP only in SKOV3 parental and EV 1B9 control cells, but not in the PDE10A KO clones
